Test results from patent EP0351720B1, “Use of substituted 3,4-dihydro-2H-benzopyrans as medicaments against obstructive disorders of the lung” (HOECHST AKTIENGESELLSCHAFT, priority 1988, dated 1990).

Test system: Histamin-induzierte Bronchokonstriktion
Assay: Influence on histamine-induced bronchoconstriction in anaesthetised, ventilated guinea pigs (modified Konzett-Rössler method), test substance given as aerosol
Format: in vivo, Meerschweinchen
Details: for % Hemmung der Histamin-induzierten Bronchokonstriktion: n = 6, change vs control
Description: a) Beeinflussung von Atemwegsstörungen Einfluß auf die histamin-induzierte Bronchokonstriktion am Meerschweinchen
Albino-Meerschweinchen beiderlei Geschlechts mit einem Gewicht zwischen 450 und 550 g wurden mit 60 mg/kg Pentobarbital i.p. narkotisiert. Nach Tracheotomie wurden sie mit einer Starlingpumpe (Fa. Braun, Melsungen) beatmet. Das Atemvolumen wurde so gewählt, daß die Lungen ausgiebig belüftet wurden. Der Beatmungsdruck wurde mit Hilfe einer Wassersäule auf 80 mm H₂O eingestellt (Rosenthal und Dervinis). Die Atemfrequenz betrug 30 Atemzüge/min. Ein Überschuß an verfügbarer Atemluft kann durch einen Nebenweg im Einatemschlauch zu einer als Wasser-Überdruckventil geschalteten Waschflasche gelangen. Wird von der Starling-Pumpe durch den Einatemschlauch Luft in die Lunge geblasen, so füllt sich diese so lange, bis der Druck in dem System den durch die Höhe der Wassersäule eingestellten Wert (80 mm H₂O) erreicht hat. Die noch weiter zuströmende Luft fließt durch das Überdruckventil in die Waschflasche. Dieser Luftüberschuß, der nach Überschreiten des eingestellten Drucks in die Flasche entweicht, wird mit Hilfe eines Pistonrekorders gemessen und gilt als Maß für eine Veränderung des Atemwiderstands. Die Messung erfolgte in einer von der ursprünglichen Konzett-Rössler-Methode leicht modifizierten Weise, indem der Pistonrekorder durch ein Staudruckrohr nach Fleisch (Typ 0000) ersetzt wurde. Der auftretende Druckunterschled wurde mit einem Differenzdruckwandler Statham PM 97 TC erfaßt. Zur Aufzeichnung der Meßwerte diente ein Mehrfachkanalschreiber der Fa. Hellige.
Die Testsubstanzen werden als Aerosol mit Hilfe eines Ultraschallverneblers (Monaghan M 650) verabreicht. Die Verneblerkammer wird in den Einatemschlauch der Atempumpe zwischengeschaltet und den Tieren gestattet, das Aerosol 1 min lang einzuatmen. Das zu vernebelnde Volumen beträgt 0,02 ml/min.
Vernebelt wird eine physiologische Kochsalzlösung, der die zu prüfende Substanz in Form einer Lösung in Propandiol zugesetzt wird.
In einem Kontrollversuch wird sichergestellt, daß das Lösemittel Propandiol/physiologische Kochsalzlösung keine Eigenwirkung besitzt.
Eine Bronchokonstriktion wird durch Gaben von Histamindihydrochlorid (6 - 12 »g/kg i.v.) induziert. Die Injektion erfolgt durch einen in die V. jugularis eingeführten Katheter. Die Dosierung wird so gewählt, daß ein respiratorischer "Überfluß" von 60 % des angebotenen Atemvolumens während der Histamin-induzierten Bronchokonstriktion auftritt. Die Histamingaben erfolgen in 5-Minuten-Intervallen. Nach mindestens 3 gut reproduzierbaren Bronchokonstriktionen werden die Testsubstanzen als Aerosol 1 min lang verabreicht und nach einer Einwirkungszeit von 2 min erneut die Bronchokonstriktion induziert und in 5-Minuten-Intervallen wiederholt. […]

SMILES: CC1(C)Oc2ccc(S(=O)(=O)c3ccccc3)cc2C(N2CCCC2=O)C1O (single isomer, unassigned; (+)) [Beispiel 5a, (+)-3,4-Dihydro-2,2-dimethyl-6-phenylsulfonyl-4-(2-oxo-1-pyrrolidinyl)-2H-benzo[b]pyran-3-ol]
- ED50 (Cavia porcellus, inhaled or nasal, aerosol, determined by linear regression of the % inhibition results, read-out: ID₅₀): 4.39 µg/kg
- % Hemmung der Histamin-induzierten Bronchokonstriktion (Dosis 1 »g/kg as aerosol for 1 min): 14 ± 4%
- % Hemmung der Histamin-induzierten Bronchokonstriktion (Dosis 3 »g/kg as aerosol for 1 min): 35 ± 4%
- % Hemmung der Histamin-induzierten Bronchokonstriktion (Dosis 10 »g/kg as aerosol for 1 min): 77 ± 7%
